Biological target: T1, CFTR (F508del/MF-HBE cells) (Homo sapiens, UniProt P13569, DEL508-508)
T1 construct: human bronchial epithelial (HBE) cells derived from CF subjects heterozygous for F508del and a minimal function CFTR mutation; endogenous in cells; host or cells: primary human bronchial epithelial cells from CF subjects (F508del/MF genotype)
Test: Ussing chamber assay of CFTR-mediated short-circuit currents (identification of potentiator compounds)
Assay type: cell-based
Conditions: CFTR-mediated ISC in F508del/MF-HBE cells; incubated 18-24 hours at 37° C. with 10 μM (14S)-8-[3-(2-{dispiro[2.0.2.1]heptan-7-yl}ethoxy)-1H-pyrazol-1-yl]-...-2,2,4-trione, 20% human serum
Experimental: Ussing Chamber Assay of CFTR-Mediated Short-Circuit Currents
Ussing chamber experiments were performed using human bronchial epithelial (HBE) cells derived from CF subjects heterozygous for F508del and a minimal function CFTR mutation (F508del/MF-HBE) and cultured as previously described (Neuberger T, Burton B, Clark H, Van Goor F Methods Mol Biol 2011:741:39-54). After four days the apical media was removed, and the cells were grown at an air liquid interface for >14 days prior to use.
To isolate the CFTR-mediated short-circuit (ISC) current, F508del/MF-HBE grown on Costar® Snapwell™ cell culture inserts were mounted in an Ussing chamber and the transepithelial ISC was measured under voltage-clamp recording conditions (Vhold=0 mV) at 37° C. The basolateral solution contained (in mM) 145 NaCl, 0.83 K2HPO4, 3.3 KH2PO4, 1.2 MgCl2, 1.2 CaCl2), 10 Glucose, 10 HEPES (pH adjusted to 7.4 with NaOH) and the apical solution contained (in mM) 145 NaGluconate, 1.2 MgCl2, 1.2 CaCl2), 10 glucose, 10 HEPES (pH adjusted to 7.4 with NaOH) and 30 μM amiloride to block the epithelial sodium channel. Forskolin (20 μM) was added to the apical surface to activate CFTR, followed by apical addition of a CFTR inhibitor cocktail consisting of BPO, GlyH-101 and CFTR inhibitor 172 (each at 20 μM final assay concentration) to specifically isolate CFTR currents. The CFTR-mediated ISC (μA/cm^2) for each condition was determined from the peak forskolin response to the steady-state current following inhibition.
Identification of Potentiator Compounds
The activity of the CFTR potentiator compounds on the CFTR-mediated ISC was determined in Ussing chamber studies as described above. The F508del/MF-HBE cell cultures were incubated with the potentiator compounds at a range of concentrations in combination with 10 μM (14S)-8-[3-(2-{dispiro[2.0.2.1]heptan-7-yl}ethoxy)-1H-pyrazol-1-yl]-12,12-dimethyl-2λ^6-thia-3,9,11,18,23-pentaazatetracyclo [17.3.1.111,14.05,10]tetracosa-1(22),5,7,9,19(23),20-hexaene-2,2,4-trione for 18-24 hours at 37° C. and in the presence of 20% human serum. The concentration of potentiator compounds and (14S)-8-[3-(2-{dispiro[2.0.2.1]heptan-7-yl}ethoxy)-1H-pyrazol-1-yl]-12,12-dimethyl-2λ^6-thia-3,9,11,18,23-pentaazatetracyclo [17.3.1.111,14.05,10]tetracosa-1(22),5,7,9,19(23),20-hexaene-2,2,4-trione used during the 18-24 hours incubations was kept constant throughout the Ussing chamber measurement of the CFTR-mediated ISC to ensure compounds were present throughout the entire experiment. The efficacy and potency of the putative F508del potentiators was compared to that of the known Vertex potentiator, ivacaftor (N-[2,4-bis(1,1-dimethylethyl)-5-hydroxyphenyl]-1,4-dihydro-4-oxoquinoline-3-carboxamide).

T1 sequence (P13569 with tags, fused parts or gaps DEL508-508): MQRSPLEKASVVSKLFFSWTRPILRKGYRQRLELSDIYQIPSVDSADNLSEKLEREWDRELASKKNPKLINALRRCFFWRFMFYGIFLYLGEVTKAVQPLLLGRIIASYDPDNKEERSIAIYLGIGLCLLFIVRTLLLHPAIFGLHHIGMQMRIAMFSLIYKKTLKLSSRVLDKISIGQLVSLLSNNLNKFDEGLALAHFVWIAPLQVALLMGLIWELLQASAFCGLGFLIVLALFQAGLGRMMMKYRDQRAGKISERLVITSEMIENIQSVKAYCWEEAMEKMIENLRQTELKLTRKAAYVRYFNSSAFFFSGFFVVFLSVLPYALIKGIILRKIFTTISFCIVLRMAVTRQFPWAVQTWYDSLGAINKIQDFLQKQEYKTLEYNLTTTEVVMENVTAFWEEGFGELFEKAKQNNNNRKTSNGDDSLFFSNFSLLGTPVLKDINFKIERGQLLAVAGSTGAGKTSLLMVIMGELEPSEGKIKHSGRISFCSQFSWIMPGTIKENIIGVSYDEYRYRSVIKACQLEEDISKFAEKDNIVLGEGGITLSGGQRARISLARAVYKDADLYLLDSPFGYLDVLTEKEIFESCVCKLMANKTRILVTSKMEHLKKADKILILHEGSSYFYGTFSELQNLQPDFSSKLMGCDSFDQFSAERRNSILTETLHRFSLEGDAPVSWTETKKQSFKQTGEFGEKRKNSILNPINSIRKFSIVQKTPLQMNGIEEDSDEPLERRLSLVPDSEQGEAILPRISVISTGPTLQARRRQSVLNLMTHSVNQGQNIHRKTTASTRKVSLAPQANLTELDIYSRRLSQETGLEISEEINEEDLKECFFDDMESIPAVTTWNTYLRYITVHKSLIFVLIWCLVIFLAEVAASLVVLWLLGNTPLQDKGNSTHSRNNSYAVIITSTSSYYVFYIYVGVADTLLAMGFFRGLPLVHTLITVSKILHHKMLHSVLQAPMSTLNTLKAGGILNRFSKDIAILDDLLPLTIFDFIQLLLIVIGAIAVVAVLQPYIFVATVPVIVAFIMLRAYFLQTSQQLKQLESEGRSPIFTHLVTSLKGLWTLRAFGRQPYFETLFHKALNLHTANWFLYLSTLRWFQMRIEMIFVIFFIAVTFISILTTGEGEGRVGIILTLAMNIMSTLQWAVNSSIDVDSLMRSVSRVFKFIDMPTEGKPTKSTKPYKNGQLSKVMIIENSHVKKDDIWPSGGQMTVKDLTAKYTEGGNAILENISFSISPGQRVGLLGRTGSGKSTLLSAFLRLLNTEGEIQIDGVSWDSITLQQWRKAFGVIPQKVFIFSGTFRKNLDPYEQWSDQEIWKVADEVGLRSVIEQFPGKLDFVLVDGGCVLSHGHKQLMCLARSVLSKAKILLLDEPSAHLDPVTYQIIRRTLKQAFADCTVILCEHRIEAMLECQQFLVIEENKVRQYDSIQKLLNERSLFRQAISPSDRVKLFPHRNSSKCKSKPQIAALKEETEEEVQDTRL

SMILES	EC50 [nM]
CN1CCCCCCC(C)(O)C2=NN=C(O2)c2nc1c(C(F)(F)F)cc2N (single isomer, unassigned) [Compound 61, 17-amino-6,13-dimethyl-15-(trifluoromethyl)-19-oxa-3,4,13,18-tetrazatricyclo[12.3.1.12,5]nonadeca-1(17),2,4,14(18),15-pentaen-6-ol]	< 500
CN1CCCCCCC(C)(O)C2=NN=C(O2)c2nc1c(C(F)(F)F)cc2N (single isomer, unassigned) [Compound 62, 17-amino-6,13-dimethyl-15-(trifluoromethyl)-19-oxa-3,4,13,18-tetrazatricyclo[12.3.1.12,5]nonadeca-1(17),2,4,14(18),15-pentaen-6-ol]	< 500
CC(C)c1cc(N)c2nc1N1CCC[C@H]1CCCCCC(O)(C(F)(F)F)C1=NN=C2O1 (single isomer, unassigned) [Compound 63]	< 500
CC1CCCCCC(O)(C(F)(F)F)C2=NN=C(O2)c2nc(c(C(F)(F)F)cc2N)N1 (single isomer, unassigned) [Compound 65, 17-amino-12-methyl-6,15-bis(trifluoromethyl)-19-oxa-3,4,13,18-tetrazatricyclo[12.3.1.12,5]nonadeca-1(18),2,4,14,16-pentaen-6-ol]	< 500
CC1CCCCCC(O)(C(F)(F)F)C2=NN=C(O2)c2nc(c(C(F)(F)F)cc2N)N1 (single isomer, unassigned) [Compound 66, 17-amino-12-methyl-6,15-bis(trifluoromethyl)-19-oxa-3,4,13,18-tetrazatricyclo[12.3.1.12,5]nonadeca-1(18),2,4,14,16-pentaen-6-ol]	< 500
Nc1cc(C(F)(F)F)c2nc1-c1nnc(o1)C(O)(C(F)(F)F)c1cccc(c1)CCC[C@@H]1CCCN21 (single isomer, unassigned) [Compound 70]	< 500
Nc1ccc2nc1-c1nnc(o1)C(O)(C(F)(F)F)CCCCC[C@@H]1CCCN21 (single isomer, unassigned) [Compound 71]	< 500
Nc1ccc2nc1-c1nnc(o1)C(O)(C(F)(F)F)CCCCC[C@@H]1CCCN21 (single isomer, unassigned) [Compound 72]	> 1000
Nc1cc(C(F)(F)F)c2nc1-c1nnc(o1)C(O)(C(F)(F)F)CCCCCCN2C1CCC1 (single isomer, unassigned) [Compound 73, 17-amino-13-cyclobutyl-6,15-bis(trifluoromethyl)-19-oxa-3,4,13,18-tetrazatricyclo[12.3.1.12,5]nonadeca-1(18),2,4,14,16-pentaen-6-ol]	< 500
CN1CCCCCCC(O)(c2ccccc2)C2=NN=C(O2)c2nc1c(C(F)(F)F)cc2N (single isomer, unassigned) [Compound 76, 17-amino-13-methyl-6-phenyl-15-(trifluoromethyl)-19-oxa-3,4,13,18-tetrazatricyclo[12.3.1.12,5]nonadeca-1(18),2,4,14,16-pentaen-6-ol]	< 500
CN1CCCCCCC(O)(c2ccccc2)C2=NN=C(O2)c2nc1c(C(F)(F)F)cc2N (single isomer, unassigned) [Compound 77, 17-amino-13-methyl-6-phenyl-15-(trifluoromethyl)-19-oxa-3,4,13,18-tetrazatricyclo[12.3.1.12,5]nonadeca-1(18),2,4,14,16-pentaen-6-ol]	> 1000
CN1CCCCCCC(O)(C2CC2)C2=NN=C(O2)c2nc1c(C(F)(F)F)cc2N (single isomer, unassigned) [Compound 78, 17-amino-6-cyclopropyl-13-methyl-15-(trifluoromethyl)-19-oxa-3,4,13,18-tetrazatricyclo[12.3.1.12,5]nonadeca-1(18),2,4,14,16-pentaen-6-ol]	< 500
CN1CCCCCCC(O)(C2CC2)C2=NN=C(O2)c2nc1c(C(F)(F)F)cc2N (single isomer, unassigned) [Compound 79, 17-amino-6-cyclopropyl-13-methyl-15-(trifluoromethyl)-19-oxa-3,4,13,18-tetrazatricyclo[12.3.1.12,5]nonadeca-1(18),2,4,14,16-pentaen-6-ol]	> 1000
N#Cc1cc(N)c2nc1N1CCC[C@H]1CCCCCC(O)(C(F)(F)F)C1=NN=C2O1 (single isomer, unassigned) [Compound 80]	< 500
N#Cc1cc(N)c2nc1N1CCC[C@H]1CCCCCC(O)(C(F)(F)F)C1=NN=C2O1 (single isomer, unassigned) [Compound 81]	> 1000
Nc1cc(C(F)(F)F)c2nc1-c1nnc(o1)C(O)(C(F)(F)F)c1cccc(n1)CCC[C@@H]1CCCN21 (single isomer, unassigned) [Compound 82]	< 500
Nc1cc(C(F)(F)F)c2nc1-c1nnc(o1)C(O)(C(F)(F)F)c1cccc(n1)CCC[C@@H]1CCCN21 (single isomer, unassigned) [Compound 83]	500 to 1000
Nc1cc(C(F)(F)F)c2nc1-c1nnc(o1)C(O)(C(F)(F)F)c1cc(ccn1)CCC[C@@H]1CCCN21 (single isomer, unassigned) [Compound 84]	< 500
Nc1cc(C(F)(F)F)c2nc1-c1nnc(o1)C(O)(C(F)(F)F)c1cc(ccn1)CCC[C@@H]1CCCN21 (single isomer, unassigned) [Compound 85]	> 1000
Nc1cc(C(F)(F)F)c2nc1-c1nnc(o1)C(O)(C(F)(F)F)c1cc(ccn1)CCC[C@@H]1CCCN21 (single isomer, unassigned) [Compound 86]	> 1000
Nc1cc(C(F)(F)F)c2nc1-c1nnc(o1)C(O)(C(F)(F)F)c1cc(ccn1)CCC[C@@H]1CCCN21 (single isomer, unassigned) [Compound 87]	< 500
Nc1cc(C(F)(F)F)c2nc1-c1nnc(o1)C(O)(C1CCOCC1)CCCCC[C@@H]1CCCN21 (single isomer, unassigned) [Compound 88]	< 500
Nc1cc(C(F)(F)F)c2nc1-c1nnc(o1)C(O)(C1CCOCC1)CCCCC[C@@H]1CCCN21 (single isomer, unassigned) [Compound 89]	> 1000
Nc1cc(C2CC2)c2nc1-c1nnc(o1)C(O)(C(F)(F)F)CCCCC[C@@H]1CCCN21 (single isomer, unassigned) [Compound 90]	< 500
Nc1cc(C2CC2)c2nc1-c1nnc(o1)C(O)(C(F)(F)F)CCCCC[C@@H]1CCCN21 (single isomer, unassigned) [Compound 91]	> 1000
COc1ccc2cc1C(O)(C(F)(F)F)C1=NN=C(O1)c1nc(c(C(F)(F)F)cc1N)N1CCC[C@H]1CCC2 (single isomer, unassigned) [Compound 92]	> 1000
COc1ccc2cc1C(O)(C(F)(F)F)C1=NN=C(O1)c1nc(c(C(F)(F)F)cc1N)N1CCC[C@H]1CCC2 (single isomer, unassigned) [Compound 93]	< 500
CCOC(=O)C1CCCCCC(O)(C(F)(F)F)C2=NN=C(O2)c2nc(c(C(F)(F)F)cc2N)N1 (single isomer, unassigned) [Compound 94, ethyl 17-amino-6-hydroxy-6,15-bis(trifluoromethyl)-19-oxa-3,4,13,18-tetrazatricyclo[12.3.1.12,5]nonadeca-1(18),2,4,14,16-pentaene-12-carboxylate]	< 500
CCOC(=O)C1CCCCCC(O)(C(F)(F)F)C2=NN=C(O2)c2nc(c(C(F)(F)F)cc2N)N1 (single isomer, unassigned) [Compound 95, ethyl 17-amino-6-hydroxy-6,15-bis(trifluoromethyl)-19-oxa-3,4,13,18-tetrazatricyclo[12.3.1.12,5]nonadeca-1(18),2,4,14,16-pentaene-12-carboxylate]	< 500
CCOC(=O)C1CCCCCC(O)(C(F)(F)F)C2=NN=C(O2)c2nc(c(C(F)(F)F)cc2N)N1 (single isomer, unassigned) [Compound 97, ethyl 17-amino-6-hydroxy-6,15-bis(trifluoromethyl)-19-oxa-3,4,13,18-tetrazatricyclo[12.3.1.12,5]nonadeca-1(18),2,4,14,16-pentaene-12-carboxylate]	> 1000

From patent US12324802B2, “Modulators of cystic fibrosis transmembrane conductance regulator” (Vertex Pharmaceuticals Incorporated, priority 2020, dated 2025)
